Reference: US20110165173A1, “THERAPEUTIC AGENT AND DETECTION REAGENT FOR ARTERIOSCLEROTIC DISEASE WHICH TARGETS FOR SALUSIN” (PROTEINEXPRESS CO., LTD., priority 2007, published 2011)

Assays:
[1] = target: T1, mouse mas-like G protein-coupled receptor Al (mMrgA 1) (Mus musculus, UniProt Q91WW5); conditions: HEK293T cells expressing mMrgA1; Wang Z et al., Eur J Pharmacol. 2006; cited from earlier work
T1 construct: host or cells: HEK293T cells (heterologous expression, reported by Wang et al., Eur J Pharmacol 2006)
T1 sequence (Q91WW5 1-304): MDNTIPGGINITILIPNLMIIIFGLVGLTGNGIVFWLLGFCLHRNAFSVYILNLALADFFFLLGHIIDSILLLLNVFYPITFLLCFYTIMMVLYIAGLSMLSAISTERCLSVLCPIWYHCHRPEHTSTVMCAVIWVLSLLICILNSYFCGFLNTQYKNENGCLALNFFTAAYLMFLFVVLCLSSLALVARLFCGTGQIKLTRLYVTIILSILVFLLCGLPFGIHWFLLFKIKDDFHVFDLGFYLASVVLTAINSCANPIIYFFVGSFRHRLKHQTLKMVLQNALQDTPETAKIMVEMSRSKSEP

[2] = tested on: ABCG1; assay: ABCG1 expression by macrophages of treated apoE-deficient mice (Western blotting); assay type: in vivo; conditions: 0.6 nmol/kg/h, four weeks; range given jointly for ABCA1, ABCG1, SR-BI; P<0.05
Method: (§1) 13-week-old male apoE-deficient mice (72 mice) were divided into the following 6 groups: (i) physiological salt saline (control); (ii) salusin-α (0.6 nmol/kg/h); (iii) salusin-β (0.6 nmol/kg/h); (iv) salusin-α (0.6 nmol/kg/h)+anti-salusin-α serum (1.4 μg/kg/h); (v) salusin-β (0.6 nmol/kg/h)+anti-salusin-β serum (1.4 μg/kg/h); and (vi) anti-salusin-β serum (1.4 μg/kg/h). The mice were subjected to continuous subcutaneous administration with the use of an osmotic mini-pump for 4 to 8 weeks. The osmotic mini-pump and the solution contained therein were changed every week.
(§2) Macrophages were collected as in the experiment in (1), and the protein expression of the gene involved in foaming of macrophages (i.e., scavenger receptors CD36 and SR-A capable of recognizing oxidized LDL, intracellular cholesterol esterification enzyme ACAT1, and ABCA1, ABCG1, and SR-BI, which are involved in cholesterol efflux) was analyzed by Western blotting. For the internal standard of the macrophage function, β-actin expression was also examined. For quantification of the band concentration, Analyzer (ATTO Corporation, Tokyo) was used.

[3] = tested on: ABCA1; assay: ABCA1 expression by macrophages of treated apoE-deficient mice (Western blotting); assay type: in vivo; conditions: 0.6 nmol/kg/h, four weeks; range given jointly for ABCA1, ABCG1, SR-BI; P<0.05
Method: as §1, §2

[4] = tested on: SR-BI; assay: SR-BI expression by macrophages of treated apoE-deficient mice (Western blotting); assay type: in vivo; conditions: 0.6 nmol/kg/h, four weeks; range given jointly for ABCA1, ABCG1, SR-BI; P<0.05
Method: as §1, §2

[5] = tested on: macrophages of apoE-deficient mice; assay: Cholesterol efflux caused by HDL in macrophages collected from treated apoE-deficient mice; assay type: in vivo; conditions: 0.6 nmol/kg/h, four weeks; P<0.01
Method: as §1
Macrophages collected in the above manner were kept warm for 24 hours in a culture solution prepared as above containing oxidized LDL (10 μg/ml) labeled with [^3H]cholesterol (74 kBq/mL) and washed twice with PBS. Thereafter, the macrophages were kept warm for 16 hours in an RPMI1640 solution containing 0.1% BSA to which HDL (15 μg/mL) had been added. The culture solution was centrifuged at 15,000 rpm for 10 minutes so as to remove the residues therefrom. […] The radioactivity of [^3H]cholesterol in the culture solution and that in the cell extraction solution were assayed: cholesterol efflux (%)=the radioactivity of [^3H]cholesterol in the culture solution/the radioactivity of [^3H]cholesterol in the culture solution+the radioactivity of [^3H]cholesterol in the cell extraction solution×100

salusin-β: peptide (SEQ ID NO: 3) comprising 20 amino acid residues, generated by processing from preprosalusin (AIFIFIRWLLKLGHHGRAPP; listed as Homo sapiens) [reference compound]
ligand for mMrgA1 [1]: regarded as a ligand

salusin-α: peptide (SEQ ID NO: 1) comprising 28 amino acid residues, generated by processing from preprosalusin (SGALPPAPAAPRPALRAQRAGPAGPGAK; listed as Homo sapiens)
ABCG1 protein expression relative to initial level [2]: 1.5 to 2 times | ABCA1 protein expression relative to initial level [3]: 1.5 to 2 times | SR-BI protein expression relative to initial level [4]: 1.5 to 2 times | ligand for mMrgA1 [1]: does not serve as a ligand | cholesterol efflux caused by HDL relative to control [5]: approximately 2 times
